Measured values from paper PMC7034945 (RSC Advances, 2019).

Test system: HIV-1 NL4-3 virus
Experiment: Anti-HIV-1 activity, multicycle assay with HIV-1 NL4-3 in TZM-bl cells
Type: cell-based
Conditions: for EC50: Human immunodeficiency virus 1, NL43, TZM-bl; for anti-HIV-1 activity (in words) / SI (selectivity index, ratio of CC50/EC50): TZM-bl cells; for anti-HIV-1 activity (in words): at the test concentration

Compound	EC50 [µM]	anti-HIV-1 activity (in words)	SI (selectivity index, ratio of CC50/EC50) (Table 1)	SI (selectivity index, ratio of CC50/EC50) (Table 2)
Methyl (S)-2-(4-(3-((1-((4-methoxyphenyl)(methyl)amino)-1-oxo-3-phenylpropan-2-yl)carbamoyl)phenyl)-1H-1,2,3-triazol-1-yl)acetate [III-15m]	–	lost anti-HIV-1 activity completely	–	–
COc1ccc(N(C)C(=O)[C@H](Cc2cc(F)cc(F)c2)NC(=O)c2cn(Cc3ccc4ccccc4c3)nn2)cc1 [I-8n, (S)-N-(3-(3,5-Difluorophenyl)-1-((4-methoxyphenyl)(methyl)amino)-1-oxopropan-2-yl)-1-(naphthalen-2-ylmethyl)-1H-1,2,3-triazole-4-carboxamide]	14.6 ± 2.34	–	>1.23	–
COc1ccc(N(C)C(=O)[C@H](Cc2cc(F)cc(F)c2)NC(=O)c2cn(Cc3cccc4ccccc34)nn2)cc1 [I-8m, (S)-N-(3-(3,5-Difluorophenyl)-1-((4-methoxyphenyl)(methyl)amino)-1-oxopropan-2-yl)-1-(naphthalen-1-ylmethyl)-1H-1,2,3-triazole-4-carboxamide]	14.8 ± 3.24	–	>1.22	–
COc1ccc(N(C)C(=O)[C@H](Cc2cc(F)cc(F)c2)NC(=O)c2cn(-c3ccc4c(c3)OCO4)nn2)cc1 [I-8q, (S)-1-(Benzo[d][1,3]dioxol-5-yl)-N-(3-(3,5-difluorophenyl)-1-((4-methoxyphenyl)(methyl)amino)-1-oxopropan-2-yl)-1H-1,2,3-triazole-4-carboxamide]	9.15 ± 2.8	–	>2.04	–
COc1ccc(N(C)C(=O)[C@H](Cc2cc(F)cc(F)c2)NC(=O)c2cn(Cc3ccccc3Cl)nn2)cc1 [I-8d, (S)-1-(2-Chlorobenzyl)-N-(3-(3,5-difluorophenyl)-1-((4-methoxyphenyl)(methyl)amino)-1-oxopropan-2-yl)-1H-1,2,3-triazole-4-carboxamide]	9.63 ± 2.04	–	>1.92	–
COc1ccc(N(C)C(=O)[C@H](Cc2cc(F)cc(F)c2)NC(=O)c2cn(Cc3cccc([N+](=O)[O-])c3)nn2)cc1 [I-8k, (S)-N-(3-(3,5-Difluorophenyl)-1-((4-methoxyphenyl)(methyl)amino)-1-oxopropan-2-yl)-1-(3-nitrobenzyl)-1H-1,2,3-triazole-4-carboxamide]	10 ± 1.76	–	–	–
CCOC(=O)Cn1cc(-c2cccc(C(=O)N[C@@H](Cc3cc(F)cc(F)c3)C(=O)N(C)c3ccc(OC)cc3)c2)nn1 [II-10m, Ethyl (S)-2-(4-(3-((3-(3,5-difluorophenyl)-1-((4-methoxyphenyl)(methyl)amino)-1-oxopropan-2-yl)carbamoyl)phenyl)-1H-1,2,3-triazol-1-yl)acetate]	–	lost anti-HIV-1 activity completely	–	–
COc1ccc(N(C)C(=O)[C@H](Cc2cc(F)cc(F)c2)NC(=O)c2cn(Cc3ccccc3C#N)nn2)cc1 [I-8g, (S)-1-(2-Cyanobenzyl)-N-(3-(3,5-difluorophenyl)-1-((4-methoxyphenyl)(methyl)amino)-1-oxopropan-2-yl)-1H-1,2,3-triazole-4-carboxamide]	9.61 ± 2.07	–	>1.96	–
COc1ccc(N(C)C(=O)[C@H](Cc2cc(F)cc(F)c2)NC(=O)c2cn(Cc3ccc(Cl)cc3)nn2)cc1 [I-8f, (S)-1-(4-chlorobenzyl)-N-(3-(3,5-difluorophenyl)-1-((4-methoxyphenyl)(methyl)amino)-1-oxopropan-2-yl)-1H-1,2,3-triazole-4-carboxamide]	8.7 ± 1.65	–	>2.13	–
COC(=O)Cn1cc(-c2cccc(C(=O)N[C@@H](Cc3cc(F)cc(F)c3)C(=O)N(C)c3ccc(OC)cc3)c2)nn1 [II-10l, Methyl (S)-2-(4-(3-((3-(3,5-difluorophenyl)-1-((4-methoxyphenyl)(methyl)amino)-1-oxopropan-2-yl)carbamoyl)phenyl)-1H-1,2,3-triazol-1-yl)acetate]	–	lost anti-HIV-1 activity completely	–	–

The next lines start with results.

EC50 [µM]	Compound	anti-HIV-1 activity (in words)	SI (selectivity index, ratio of CC50/EC50) (Table 1)	SI (selectivity index, ratio of CC50/EC50) (Table 2)
> 35.5	COc1ccc(N(C)C(=O)[C@H](Cc2cc(F)cc(F)c2)NC(=O)c2cccc(-c3cn(Cc4ccccc4[N+](=O)[O-])nn3)c2)cc1 [II-10a, (S)-N-(3-(3,5-Difluorophenyl)-1-((4-methoxyphenyl)(methyl)amino)-1-oxopropan-2-yl)-3-(1-(2-nitrobenzyl)-1H-1,2,3-triazol-4-yl)benzamide]	–	–	–
> 33.6	COc1ccc(N(C)C(=O)[C@H](Cc2ccccc2)NC(=O)c2cccc(-c3cn(Cc4ccc5ccccc5c4)nn3)c2)cc1 [III-15j, (S)-N-(1-((4-Methoxyphenyl)(methyl)amino)-1-oxo-3-phenylpropan-2-yl)-3-(1-(naphthalen-2-ylmethyl)-1H-1,2,3-triazol-4-yl)benzamide]	–	–	–
> 33.8	COC(=O)CCCn1cc(-c2cccc(C(=O)N[C@@H](Cc3cc(F)cc(F)c3)C(=O)N(C)c3ccc(OC)cc3)c2)nn1 [II-10n, Methyl (S)-4-(4-(3-((3-(3,5-difluorophenyl)-1-((4-methoxyphenyl)(methyl)amino)-1-oxopropan-2-yl)carbamoyl)phenyl)-1H-1,2,3-triazol-1-yl)butanoate]	lost anti-HIV-1 activity completely	–	–
23.4 ± 6.88	COc1ccc(N(C)C(=O)[C@H](Cc2cc(F)cc(F)c2)NC(=O)c2cccc(-c3cn(Cc4ccc(C(N)=O)cc4)nn3)c2)cc1 [II-10d, (S)-3-(1-(4-Carbamoylbenzyl)-1H-1,2,3-triazol-4-yl)-N-(3-(3,5-difluorophenyl)-1-((4-methoxyphenyl)(methyl)amino)-1-oxopropan-2-yl)benzamide]	exhibited anti-HIV-1 activity at the test concentration	–	>1.37
> 31.7	COc1ccc(N(C)C(=O)[C@H](Cc2cc(F)cc(F)c2)NC(=O)c2cccc(-c3cn(Cc4ccc5ccccc5c4)nn3)c2)cc1 [II-10j, (S)-N-(3-(3,5-Difluorophenyl)-1-((4-methoxyphenyl)(methyl)amino)-1-oxopropan-2-yl)-3-(1-(naphthalen-2-ylmethyl)-1H-1,2,3-triazol-4-yl)benzamide]	–	–	–
7.48 ± 2.83	COc1ccc(N(C)C(=O)[C@H](Cc2cc(F)cc(F)c2)NC(=O)c2cccc(-c3cn(CCc4ccsc4)nn3)c2)cc1 [II-10h, (S)-N-(3-(3,5-Difluorophenyl)-1-((4-methoxyphenyl)(methyl)amino)-1-oxopropan-2-yl)-3-(1-(2-(thiophen-3-yl)ethyl)-1H-1,2,3-triazol-4-yl)benzamide]	exhibited anti-HIV-1 activity at the test concentration	–	>4.44
8.16 ± 2.56	COc1ccc(N(C)C(=O)[C@H](Cc2cc(F)cc(F)c2)NC(=O)c2cccc(-c3cn(CC(=O)Nc4ccccc4)nn3)c2)cc1 [II-10e, (S)-N-(3-(3,5-Difluorophenyl)-1-((4-methoxyphenyl)(methyl)amino)-1-oxopropan-2-yl)-3-(1-(2-oxo-2-(phenylamino)ethyl)-1H-1,2,3-triazol-4-yl)benzamide]	exhibited anti-HIV-1 activity at the test concentration	–	>3.92
> 31.7	COc1ccc(N(C)C(=O)[C@H](Cc2cc(F)cc(F)c2)NC(=O)c2cccc(-c3cn(Cc4cccc5ccccc45)nn3)c2)cc1 [II-10k, (S)-N-(3-(3,5-Difluorophenyl)-1-((4-methoxyphenyl)(methyl)amino)-1-oxopropan-2-yl)-3-(1-(naphthalen-1-ylmethyl)-1H-1,2,3-triazol-4-yl)benzamide]	–	–	–
